From PubChem BioAssay (NCI)
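All cell lines were grown in 96-well plates and treated with compound for 48 hours. At the GI50, growth is halved. The concentration for full growth arrest is given as TGI.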

Tests used:
Assay in all cases: NCI-60 cell line screen, 48 h
CCRF-CEM leukemia = tested on: CCRF-CEM leukemia
HOP-62 NSCLC = tested on: HOP-62 NSCLC
COLO 205 colon = tested on: COLO 205 colon
M19-MEL melanoma = tested on: M19-MEL melanoma
DMS 114 small cell lung = tested on: DMS 114 small cell lung
ACHN renal = tested on: ACHN renal
SR leukemia = tested on: SR leukemia
OVCAR-4 ovarian = tested on: OVCAR-4 ovarian
OVCAR-5 ovarian = tested on: OVCAR-5 ovarian
MCF7 breast = tested on: MCF7 breast

Structure (SMILES)	TGI (CCRF-CEM leukemia) [µM]	TGI (HOP-62 NSCLC) [µM]	TGI (COLO 205 colon) [µM]	TGI (M19-MEL melanoma) [µM]	TGI (DMS 114 small cell lung) [µM]	TGI (ACHN renal) [µM]	TGI (SR leukemia) [µM]	TGI (OVCAR-4 ovarian) [µM]	TGI (OVCAR-5 ovarian) [µM]	TGI (MCF7 breast) [µM]	GI50 (CCRF-CEM leukemia) [µM]	GI50 (HOP-62 NSCLC) [µM]	GI50 (SR leukemia) [µM]	GI50 (OVCAR-4 ovarian) [µM]	GI50 (COLO 205 colon) [µM]	GI50 (OVCAR-5 ovarian) [µM]	GI50 (ACHN renal) [µM]	GI50 (MCF7 breast) [µM]
Cc1ccc2c(c1)C1(C)OC(CC(N)C1O)O2 (centres undefined)	> 100	> 100	> 100	> 100	> 100	> 100												
O=C(O)CSSCC(=O)O	> 100	> 100	> 100			> 100	> 100	> 100	> 100	> 100								
COC(=O)CCC(=O)N1Cc2cc(C)ccc2N(C(=O)CCC(=O)OC)Cc2cc(C)ccc21	> 100	> 100	> 100	> 100		> 100	> 100	> 100	> 100									
CCN(CC)c1ccc(/C=C/c2cc(C)c3ccccc3n2)cc1	87.8	34.7	5.23			> 100	12.1	> 100	75.3	75.8	2.85	4.6	1.53	8.37	2.14	7.09	6.12	2.31
CN(C)CCNC(=O)c1cccn2c(=O)c3cc4ccccc4cc3nc12	32.6	0.554	0.246			> 36.4	> 100	7.67	13.7	> 100	0.1	0.0784	0.0457	0.323	0.0973	0.217	0.0422	0.232
CC1=CC(=O)c2c(O)cccc2C1=O	0.621	17.6	3.39			3.01	4.95	3.26	3.78	3.9								
CCCN1C(=O)/C(=c2\sc3n(c2=O)C2C(NN=3)N(CC)C(=O)N2CC)c2ccccc21 (centres undefined)	> 100	16	10.4			17.1	21.9	12.8	24.1	> 32.9	0.423	0.562	0.422	0.933	0.665	1.14	0.625	0.396
CC1Oc2cc3c(-c4c(O)cc(O)c5c(O)c6c(cc45)OC(C)C(C)C6=O)c(O)cc(O)c3c(O)c2C(=O)C1C (centres undefined)	0.148	1.23	0.39			1.57	0.429	4.98	6.32	3.75								
O=C(O)CS(=O)(=O)C(c1ccccc1)c1ccccc1	> 100	> 100	> 100			> 100	> 100	> 100	> 100	> 100								
Cc1cc(N2CCCCC2)nc(N(CCNc2ccnc3cc(Cl)ccc23)Cc2ccco2)n1	8.76	3.73	3.25			8.06	4.02	4.42	6.84	3.19	2.47	1.73	1.77	1.8	1.49	2.4	2.72	1.59
CCN=C1C=CC(=C(c2ccc(N(C)C)cc2)c2ccc(N(C)C)cc2)c2ccccc21	3.64	0.578	0.183			1.1	0.572	1.6	1.19	1.09	0.153	0.0825	0.0846	0.114	0.0508	0.215	0.241	0.141
CCN1C(=O)N(CC)C2C1NN=c1s/c(=C3\C(=O)N(C(C)C)c4ccccc43)c(=O)n12 (centres undefined)	> 100	42.7	1.8			> 42.2	> 100	> 100	> 100	> 100	0.377	0.441	0.426	1.6	0.337	0.639	0.525	0.396
CCCN(Cc1ccc(F)cc1)c1ccc(CO)c(Cl)c1	30.5	17.1	13.6			22.8	35.4	7.9	0.528	12.9	12.2	2.4	13.6	0.4	3.96	0.168	9.98	0.375
OCC1OC(n2ccc3c2ncn2ncnc32)C(O)C1O (centres undefined)	> 100	33.1	19.1			> 100	> 68.8	63.1	> 100	20.4	0.596	0.595	2.96	5.1	2.77	1.19	0.719	0.183
CCOC(=O)Cc1c[nH]c(=S)[nH]c1=O	> 100	> 100	> 100			> 100	> 100	> 100	> 100	> 100	> 100	> 100	> 100	> 100	> 100	> 100	> 100	> 100
C=C1C(=O)O[C@H]2C[C@@H](C)[C@@H]3CC(=O)OC[C@@]3(C)CC12 (some centres undefined)	55.6	> 100	60.7	> 100		60		54.4										
O=C(CC1Sc2ccccc2NC1=O)Nc1cc(Cl)ccc1Cl (centres undefined)	> 100			> 100	> 100	> 100	82.1	> 100	> 100									
CCN(CC)CCOc1ccc(C(=C(C)c2ccc(Cl)cc2)c2ccc(OCCN(CC)CC)cc2)cc1	1.71	2.91	1.16			1.15	1.25	1.32	1.57	0.966	0.625	0.995	0.484	0.586	0.581	0.664	0.614	0.445
